ChEMBL document CHEMBL1201862, “PubChem BioAssay data set” (2004)
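Five concentrations, 48 hours, 96-well plates. GI50 marks 50% less growth.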 Activity calls are given as the source filed them. Cut-off read from the data, not from the text of the source: active = GI50 up to about 1.1 µM and inactive = higher.

What was measured:
Assay in all cases: inhibition of tumour cell growth, NCI panel, 48 h
[1] = system: 786-0
[2] = system: A498
[3] = system: A549
[4] = system: ACHN
[5] = system: CAKI-1
[6] = system: CCRF-CEM
[7] = system: COLO 205
[8] = system: DLD-1
[9] = system: DMS-114
[10] = system: DMS-273
[11] = system: EKVX
[12] = system: HCC 2998
[13] = system: HCT-116
[14] = system: HCT-15
[15] = system: HL-60
[16] = system: HOP-18
[17] = system: HOP-62
[18] = system: HOP-92
[19] = system: HT-29
[20] = system: IGROV-1
[21] = system: K562
[22] = system: KM-20L2
[23] = system: KM12
[24] = system: LOX IMVI
[25] = system: LXFL 529
[26] = system: M14
[27] = system: M19-MEL
[28] = system: MOLT-4
[29] = system: Malme-3M
[30] = system: NCI-H226
[31] = system: NCI-H23
[32] = system: NCI-H460
[33] = system: NCI-H522
[34] = system: OVCAR-4
[35] = system: OVCAR-5
[36] = system: OVCAR-8
[37] = system: RPMI-8226
[38] = system: RXF 393
[39] = system: SF-268
[40] = system: SF-295
[41] = system: SF-539
[42] = system: SK-MEL-28
[43] = system: SK-MEL-2
[44] = system: SK-MEL-5
[45] = system: SK-OV-3
[46] = system: SN12C
[47] = system: SNB-19
[48] = system: SNB-75
[49] = system: SNB-78
[50] = system: SW-620
[51] = system: TK-10
[52] = system: U-251
[53] = system: UACC-257
[54] = system: UACC-62
[55] = system: UO-31
[56] = system: XF498
[57] = system: OVCAR-3
[58] = system: SR

`CSC(SC)=C1Sc2cccc(Cl)c2S1` was tested, and the GI50 [1] was 28.5 µM (inactive), the GI50 [2] was 76.4 µM (inactive) and the GI50 [3] was > 100 µM (inactive). The GI50 [4] was 74 µM (inactive), the GI50 [5] was 43 µM (inactive) and the GI50 [6] was 28.8 µM (inactive). For the same molecule, the GI50 [7] was 20.4 µM (inactive), the GI50 [8] was 45.2 µM (inactive) and the GI50 [9] was 26.4 µM (inactive). For the same molecule, the GI50 [10] was 46.2 µM (inactive), the GI50 [11] was 35.4 µM (inactive) and the GI50 [12] was 15.8 µM (inactive). The GI50 [13] was 41.5 µM (inactive), the GI50 [14] was 48.3 µM and the GI50 [15] was 18.3 µM (inactive). For the same molecule, the GI50 [16] was > 100 µM (inactive), the GI50 [17] was > 100 µM (inactive) and the GI50 [18] was 15.8 µM (inactive). The GI50 [19] was 29 µM (inactive), the GI50 [20] was > 100 µM (inactive) and the GI50 [21] was 23.9 µM (inactive). For the same molecule, the GI50 [22] was 36.9 µM (inactive), the GI50 [23] was 83 µM (inactive) and the GI50 [24] was 42.6 µM (inactive). For the same molecule, the GI50 [25] was 69.8 µM (inactive), the GI50 [26] was 82 µM (inactive) and the GI50 [27] was 43.5 µM (inactive). The GI50 [28] was 31.8 µM (inactive), the GI50 [29] was > 100 µM (inactive) and the GI50 [30] was > 100 µM (inactive). For the same molecule, the GI50 [31] was 55.2 µM (inactive), the GI50 [32] was > 100 µM (inactive) and the GI50 [33] was 26.1 µM (inactive). The GI50 [34] was 68.4 µM (inactive), the GI50 [35] was 45.6 µM (inactive) and the GI50 [36] was 92.5 µM (inactive). For the same molecule, the GI50 [37] was 36.2 µM (inactive), the GI50 [38] was 43.7 µM (inactive) and the GI50 [39] was > 100 µM (inactive). For the same molecule, the GI50 [40] was 56.5 µM (inactive), the GI50 [41] was 74.6 µM (inactive) and the GI50 [42] was > 100 µM (inactive). For the same molecule, the GI50 [43] was 17.9 µM (inactive), the GI50 [44] was 33.3 µM (inactive) and the GI50 [45] was 98.4 µM (inactive). The GI50 [46] was > 100 µM (inactive), the GI50 [47] was 85.1 µM (inactive) and the GI50 [48] was 65.6 µM (inactive). For the same molecule, the GI50 [49] was > 100 µM (inactive), the GI50 [50] was 39 µM (inactive) and the GI50 [51] was 76 µM (inactive). For the same molecule, the GI50 [52] was 65.2 µM (inactive), the GI50 [53] was > 100 µM (inactive) and the GI50 [54] was 95.1 µM (inactive). For the same molecule, the GI50 [55] was 52.5 µM (inactive) and the GI50 [56] was 29.9 µM (inactive).
In the case of `CC1CCC(C(C)(C)c2ccccc2)C(=O)C1` (stereo not drawn), the GI50 [1] is reported as > 100 µM (inactive), the GI50 [2] is reported as > 100 µM (inactive) and the GI50 [3] is reported as > 100 µM (inactive). The GI50 [4] was > 100 µM (inactive), the GI50 [5] was 74.8 µM (inactive) and the GI50 [6] was > 100 µM (inactive). The GI50 [7] was > 100 µM (inactive), the GI50 [8] was > 100 µM (inactive) and the GI50 [9] was 75.7 µM (inactive). The GI50 [10] was > 100 µM (inactive), the GI50 [11] was > 100 µM (inactive) and the GI50 [12] was > 100 µM (inactive). For the same molecule, the GI50 [13] was > 100 µM (inactive), the GI50 [14] was over 100 µM and the GI50 [15] was 25.6 µM (inactive). For the same molecule, the GI50 [16] was 24.8 µM (inactive), the GI50 [17] was > 100 µM (inactive) and the GI50 [18] was 18.7 µM (inactive). For the same molecule, the GI50 [19] was > 100 µM (inactive), the GI50 [20] was > 100 µM (inactive) and the GI50 [21] was > 100 µM (inactive). The GI50 [22] was > 100 µM (inactive), the GI50 [23] was > 100 µM (inactive) and the GI50 [24] was > 100 µM (inactive). For the same molecule, the GI50 [25] was > 100 µM (inactive), the GI50 [26] was > 100 µM (inactive) and the GI50 [27] was > 100 µM (inactive). The GI50 [28] was > 100 µM (inactive), the GI50 [29] was > 100 µM (inactive) and the GI50 [32] was > 100 µM (inactive). For the same molecule, the GI50 [57] was > 100 µM (inactive), the GI50 [34] was > 100 µM (inactive) and the GI50 [35] was > 100 µM (inactive). The GI50 [36] was > 100 µM (inactive), the GI50 [37] was 95.3 µM (inactive) and the GI50 [39] was > 100 µM (inactive). The GI50 [40] was > 100 µM (inactive), the GI50 [41] was > 100 µM (inactive) and the GI50 [43] was > 100 µM (inactive). The GI50 [44] was > 100 µM (inactive), the GI50 [45] was > 100 µM (inactive) and the GI50 [46] was > 100 µM (inactive). The GI50 [47] was > 100 µM (inactive), the GI50 [48] was > 100 µM (inactive) and the GI50 [49] was > 100 µM (inactive). The GI50 [50] was > 100 µM (inactive), the GI50 [51] was > 100 µM (inactive) and the GI50 [52] was > 100 µM (inactive). For the same molecule, the GI50 [53] was > 100 µM (inactive), the GI50 [54] was > 100 µM (inactive) and the GI50 [55] was 18.3 µM (inactive). For the same molecule, the GI50 [56] was > 100 µM (inactive).
For `CCOC(=O)N1CCc2cc(OC)c(OC)cc2/C1=C/c1ccc(OC)c(OC)c1`, the GI50 [1] was 42.8 µM (inactive), the GI50 [2] was 56.4 µM (inactive) and the GI50 [3] was 43.1 µM (inactive). For the same molecule, the GI50 [4] was 52.2 µM (inactive), the GI50 [6] was 29 µM (inactive) and the GI50 [7] was 37.8 µM (inactive). For the same molecule, the GI50 [8] was 48.6 µM (inactive), the GI50 [9] was 40 µM (inactive) and the GI50 [10] was 49.2 µM (inactive). For the same molecule, the GI50 [11] was 79.4 µM (inactive), the GI50 [12] was 42.6 µM (inactive) and the GI50 [13] was 38.4 µM (inactive). For the same molecule, the GI50 [14] was 36.1 µM, the GI50 [15] was 23.6 µM (inactive) and the GI50 [16] was > 100 µM (inactive). For the same molecule, the GI50 [17] was 84.5 µM (inactive), the GI50 [18] was 30.5 µM (inactive) and the GI50 [19] was 28.4 µM (inactive). The GI50 [20] was > 100 µM (inactive), the GI50 [21] was 35.5 µM (inactive) and the GI50 [22] was 38.3 µM (inactive). The GI50 [23] was 45.3 µM (inactive), the GI50 [24] was 52.2 µM (inactive) and the GI50 [25] was 34.6 µM (inactive). The GI50 [26] was 82.8 µM (inactive), the GI50 [27] was 45.9 µM (inactive) and the GI50 [28] was 33.2 µM (inactive). The GI50 [29] was 20 µM (inactive), the GI50 [30] was 69.5 µM (inactive) and the GI50 [31] was 36.1 µM (inactive). The GI50 [33] was 40.1 µM (inactive), the GI50 [57] was 61.4 µM (inactive) and the GI50 [35] was 94 µM (inactive). For the same molecule, the GI50 [36] was > 10 µM (inactive), the GI50 [37] was 19.3 µM (inactive) and the GI50 [38] was 37.9 µM (inactive). The GI50 [39] was 79.6 µM (inactive), the GI50 [40] was 52.2 µM (inactive) and the GI50 [41] was > 100 µM (inactive). For the same molecule, the GI50 [42] was > 100 µM (inactive), the GI50 [43] was 51.6 µM (inactive) and the GI50 [44] was 20.9 µM (inactive). The GI50 [45] was > 100 µM (inactive), the GI50 [46] was 35.6 µM (inactive) and the GI50 [47] was 58.3 µM (inactive). For the same molecule, the GI50 [48] was 37.9 µM (inactive), the GI50 [49] was 38 µM (inactive) and the GI50 [58] was 34.1 µM (inactive). The GI50 [50] was 46.2 µM (inactive), the GI50 [51] was > 100 µM (inactive) and the GI50 [52] was 44.5 µM (inactive). The GI50 [53] was 37.2 µM (inactive), the GI50 [54] was 55.8 µM (inactive) and the GI50 [55] was 27.8 µM (inactive). For the same molecule, the GI50 [56] was 30 µM (inactive).
